# Results published in ChEMBL document CHEMBL5126664, “Anti-Epstein-Barr Viral Agents from the Medicinal Herb-Derived Fungus Alternaria alstroemeriae Km2286” (J Nat Prod, 2022).
# What was measured:
# Human gammaherpesvirus 4 [1] = assay: Antiviral activity against EBV infected in P3HR1 cells assessed as decrease in Rta cells at 10 uM measured after 24 hrs by Western blot analysis relative to control; format: functional; settings: human gammaherpesvirus 4, P3HR-1
# BV-2 [2] = assay: Antiinflammatory activity in mouse BV2 cells assessed as reduction in LPS-induced nitric oxide production at 10 uM by colorimetric assay relative to control; format: functional
# [3] = Selectivity index, ratio of CC50 for human P3HR1 cells to EC50 for EBV; format: toxicity; settings: read-out: Ratio CC50/EC50
# [4] = Cytotoxicity against human P3HR1 cells; format: toxicity, cell-based, P3HR-1
# Human gammaherpesvirus 4 [5] = assay: Antiviral activity against EBV infected in P3HR1 cells assessed as decrease in viral replication; format: functional, organism-based; settings: human gammaherpesvirus 4, P3HR-1
# BV-2 [6] = assay: Antiinflammatory activity in mouse BV2 cells assessed as reduction in LPS-induced nitric oxide production by colorimetric assay; format: functional, cell-based
compound,measurement,setting,value
CC[C@H](C)[C@H]1NC(=O)C(C(C)=O)=C1O,inhibition at 10 µM,Human gammaherpesvirus 4 [1],-5%
same,inhibition at 10 µM,BV-2 [2],41.1%
CO[C@H]1c2c3c4c(c(O)ccc4c4ccc(O)c(c24)[C@@H](O)[C@H]1O)C(=O)C=C3,inhibition at 10 µM,Human gammaherpesvirus 4 [1],100%
same,inhibition at 10 µM,BV-2 [2],105%
same,selectivity ratio,[3],49.7
same,CC50,[4],60.1 µM
same,EC50,Human gammaherpesvirus 4 [5],1.21 µM
same,IC50,BV-2 [6],2.73 µM
O=C1C=Cc2c3c4c(c(O)ccc4c4ccc(O)c1c24)[C@@H](O)[C@@H](Cl)[C@H]3O,inhibition at 10 µM,Human gammaherpesvirus 4 [1],100%
same,inhibition at 10 µM,BV-2 [2],94.9%
same,selectivity ratio,[3],26.1
same,CC50,[4],39.4 µM
same,EC50,Human gammaherpesvirus 4 [5],1.51 µM
same,IC50,BV-2 [6],0.73 µM
O=C1C[C@H](SCC(O)C(=O)O)[C@@]2(O)c3c(ccc(O)c31)-c1ccc(O)c3c1[C@@H]2[C@@H](Cl)[C@H](O)[C@@H]3O (stereo partly drawn),inhibition at 10 µM,Human gammaherpesvirus 4 [1],100%
same,inhibition at 10 µM,BV-2 [2],102%
same,selectivity ratio,[3],13.5
same,CC50,[4],2.3 µM
same,EC50,Human gammaherpesvirus 4 [5],0.17 µM
same,IC50,BV-2 [6],0.33 µM
O=C1C=Cc2c3c4c(c(O)ccc4c4ccc(O)c1c24)[C@@H](O)[C@H](Cl)[C@@H]3O,inhibition at 10 µM,Human gammaherpesvirus 4 [1],100%
same,inhibition at 10 µM,BV-2 [2],76.2%
same,selectivity ratio,[3],> 32
same,CC50,[4],> 100 µM
same,EC50,Human gammaherpesvirus 4 [5],3.13 µM
same,IC50,BV-2 [6],2.06 µM
O=C1C=Cc2c3c4c(c(O)ccc4c4ccc(O)c1c24)[C@@H](O)[C@H](O)[C@@H]3O,inhibition at 10 µM,Human gammaherpesvirus 4 [1],100%
same,inhibition at 10 µM,BV-2 [2],20.2%
same,selectivity ratio,[3],64.3
same,CC50,[4],86.1 µM
same,EC50,Human gammaherpesvirus 4 [5],1.34 µM
O=C1C[C@H](O)[C@H]2c3ccc(O)c4c3[C@H](c3ccc(O)c1c32)[C@@H](O)[C@@H](Cl)[C@@H]4O,inhibition at 10 µM,Human gammaherpesvirus 4 [1],100%
same,inhibition at 10 µM,BV-2 [2],92.1%
same,selectivity ratio,[3],25.3
same,CC50,[4],61.2 µM
same,EC50,Human gammaherpesvirus 4 [5],2.42 µM
same,IC50,BV-2 [6],4.08 µM
COc1cc(/C=C/C(=O)CC(=O)/C=C/c2ccc(O)c(OC)c2)ccc1O [CURCUMIN],IC50,BV-2 [6],2.69 µM
O=C1C[C@@H](O)[C@@H]2c3ccc(O)c4c3[C@@H](c3ccc(O)c1c32)[C@H](O)CC4=O [STEMPHYPERYLENOL],inhibition at 10 µM,Human gammaherpesvirus 4 [1],34%
same,inhibition at 10 µM,BV-2 [2],77.4%
same,IC50,BV-2 [6],3.25 µM
CC[C@H](C)[C@@H]1NC(=O)C(C(C)=O)=C1O [TENUAZONIC ACID],inhibition at 10 µM,Human gammaherpesvirus 4 [1],23%
same,inhibition at 10 µM,BV-2 [2],62.9%
